Results reported in article PMC12446476 (Nature Communications, 2025).
Several values for one entry are separate records, joined by “and”; a condition that tells them apart may be missing. Identical values can stand only once.

System: N. gonorrhoeae
Experiment: N. gonorrhoeae murine vaginal infection model, efficacy
Type: in vivo, mouse
Conditions: BID
Description: The N. gonorrhoeae female mouse vaginal model[45] was performed in accordance with the Guide for Care and Use of Laboratory Animals[75]. Animal rooms were maintained at a temperature range of 20–24 °C and humidity between 30% and 70%, with 12 h light/dark cycles. Ovariectomized BALB/c female mice (5–6 weeks, BioLASCO Taiwan Co., Ltd.) were treated with estradiol (0.23 mg/mouse) two days before infection and on the day of infection. Ovariectomized mice were used to avoid staging mice before treating them with estradiol. Beginning two days prior to infection and maintained until the end of the study, animals were treated twice daily with streptomycin (1.2 mg/mouse) and vancomycin (0.6 mg/mouse) each via intraperitoneal (IP) injection and received trimethoprim sulfate in the drinking water (0.4 mg/mL) to control vaginal microflora. Animals were anesthetised with pentobarbital (80 mg/kg), the vagina was rinsed with 50 mM HEPES (pH 7.4), and then inoculated with N. gonorrhoeae in pre-warmed PBS (0.02 mL/mouse containing ~1 × 10^5 CFU).
Control groups received either a single IP injection of ceftriaxone or 5% dextrose (vehicle) twice daily. Animals were sacrificed via CO2 asphyxiation at either 2 h (baseline), 26 and/or 50 h post-infection. Vaginal lavage was performed twice with 200 µL GC broth containing 0.05% saponin to recover bacteria. Bacterial burden in the lavage fluids was determined by performing 10-fold serial dilutions and plating on chocolate agar plates. Four strains were assessed using the model; ATCC 700825 is naturally streptomycin-resistant, whereas AR Bank0179-15, AR Bank0181-17 and WHO X-07 are derivatives of AR Bank0179, AR Bank0181 and WHO X, respectively, that were engineered for streptomycin resistance for use in the model.

[1] = Data 4, N. gonorrhoeae WHO X-07, ovariectomized BALB/c, 20 mg/kg PO, 24h, individual animals, 20 mg/kg
[2] = Data 4, N. gonorrhoeae WHO X-07, ovariectomized BALB/c, 20 mg/kg PO, 48h, individual animals, 20 mg/kg
[3] = Data 4, N. gonorrhoeae WHO X-07, ovariectomized BALB/c, 30 mg/kg PO, 24h, individual animals, 30 mg/kg
[4] = Data 4, N. gonorrhoeae WHO X-07, ovariectomized BALB/c, 30 mg/kg PO, 48h, individual animals, 30 mg/kg
[5] = Data 4, N. gonorrhoeae WHO X-07, ovariectomized BALB/c, 40 mg/kg PO, 24h, individual animals, 40 mg/kg
[6] = Data 4, N. gonorrhoeae WHO X-07, ovariectomized BALB/c, 40 mg/kg PO, 48h, individual animals, 40 mg/kg
[7] = Data 4, N. gonorrhoeae WHO X-07, ovariectomized BALB/c, 80 mg/kg PO, 24h, individual animals, 80 mg/kg
[8] = Data 4, N. gonorrhoeae WHO X-07, ovariectomized BALB/c, 80 mg/kg PO, 48h, individual animals, 80 mg/kg
[9] = Data 4, N. gonorrhoeae WHO X-07, ovariectomized BALB/c, 160 mg/kg PO, 24h, individual animals, 160 mg/kg
[10] = Data 4, N. gonorrhoeae WHO X-07, ovariectomized BALB/c, 160 mg/kg PO, 48h, individual animals
[11] = N. gonorrhoeae AR Bank0179-15, vaginal lavage, individual mice, Debio 1453P 10 mg/kg PO, 24h
[12] = N. gonorrhoeae AR Bank0179-15, vaginal lavage, individual mice, Debio 1453P 10 mg/kg PO, 48h
[13] = N. gonorrhoeae AR Bank0179-15, vaginal lavage, individual mice, Debio 1453P 20 mg/kg PO, 24h

Cc1c(CN(C)C(=O)/C=C/c2cnc3c(c2)N[C@H](C)[C@H](OP(=O)([O-])[O-])C(=O)N3)oc2ccccc12.[Na+].[Na+] [Debio 1453 P]
CFU/mL lavage fluid [1]: 780000 CFU/mL lavage fluid and 510000 CFU/mL lavage fluid and 2110000 CFU/mL lavage fluid and 820000 CFU/mL lavage fluid and 1010000 CFU/mL lavage fluid
Log10(CFU/mL lavage fluid) [1]: 5.89 Log10(CFU/mL lavage fluid) and 5.71 Log10(CFU/mL lavage fluid) and 6.32 Log10(CFU/mL lavage fluid) and 5.91 Log10(CFU/mL lavage fluid) and 6.00 Log10(CFU/mL lavage fluid)
CFU/mL lavage fluid [2]: 2660000 CFU/mL lavage fluid and 620000 CFU/mL lavage fluid and 3200000 CFU/mL lavage fluid and 920000 CFU/mL lavage fluid and 870000 CFU/mL lavage fluid
Log10(CFU/mL lavage fluid) [2]: 6.42 Log10(CFU/mL lavage fluid) and 5.79 Log10(CFU/mL lavage fluid) and 6.51 Log10(CFU/mL lavage fluid) and 5.96 Log10(CFU/mL lavage fluid) and 5.94 Log10(CFU/mL lavage fluid)
CFU/mL lavage fluid [3]: 740000 CFU/mL lavage fluid and 760000 CFU/mL lavage fluid and 840000 CFU/mL lavage fluid and 440000 CFU/mL lavage fluid and 700000 CFU/mL lavage fluid
Log10(CFU/mL lavage fluid) [3]: 5.87 Log10(CFU/mL lavage fluid) and 5.88 Log10(CFU/mL lavage fluid) and 5.92 Log10(CFU/mL lavage fluid) and 5.64 Log10(CFU/mL lavage fluid) and 5.85 Log10(CFU/mL lavage fluid)
CFU/mL lavage fluid [4]: 790000 CFU/mL lavage fluid and 1090000 CFU/mL lavage fluid and 46000 CFU/mL lavage fluid and 550000 CFU/mL lavage fluid and 1250000 CFU/mL lavage fluid
Log10(CFU/mL lavage fluid) [4]: 5.90 Log10(CFU/mL lavage fluid) and 6.04 Log10(CFU/mL lavage fluid) and 4.66 Log10(CFU/mL lavage fluid) and 5.74 Log10(CFU/mL lavage fluid) and 6.10 Log10(CFU/mL lavage fluid)
CFU/mL lavage fluid [5]: 2240000 CFU/mL lavage fluid and 380000 CFU/mL lavage fluid and 92000 CFU/mL lavage fluid and 77000 CFU/mL lavage fluid and 610000 CFU/mL lavage fluid
Log10(CFU/mL lavage fluid) [5]: 6.35 Log10(CFU/mL lavage fluid) and 5.58 Log10(CFU/mL lavage fluid) and 4.96 Log10(CFU/mL lavage fluid) and 4.89 Log10(CFU/mL lavage fluid) and 5.79 Log10(CFU/mL lavage fluid)
CFU/mL lavage fluid [6]: 123000 CFU/mL lavage fluid and 55000 CFU/mL lavage fluid and 380000 CFU/mL lavage fluid and 85000 CFU/mL lavage fluid and 1000000 CFU/mL lavage fluid
Log10(CFU/mL lavage fluid) [6]: 5.09 Log10(CFU/mL lavage fluid) and 4.74 Log10(CFU/mL lavage fluid) and 5.58 Log10(CFU/mL lavage fluid) and 4.93 Log10(CFU/mL lavage fluid) and 6.00 Log10(CFU/mL lavage fluid)
CFU/mL lavage fluid [7]: 5 CFU/mL lavage fluid and 295 CFU/mL lavage fluid and 380 CFU/mL lavage fluid and 10 CFU/mL lavage fluid
Log10(CFU/mL lavage fluid) [7]: 0.70 Log10(CFU/mL lavage fluid) and 2.47 Log10(CFU/mL lavage fluid) and 2.58 Log10(CFU/mL lavage fluid) and 1.00 Log10(CFU/mL lavage fluid)
CFU/mL lavage fluid [8]: 55 CFU/mL lavage fluid and <5 CFU/mL lavage fluid and 5 CFU/mL lavage fluid
Log10(CFU/mL lavage fluid) [8]: 1.74 Log10(CFU/mL lavage fluid) and <0.70 Log10(CFU/mL lavage fluid) and 0.70 Log10(CFU/mL lavage fluid)
CFU/mL lavage fluid [9]: <5 CFU/mL lavage fluid and 30 CFU/mL lavage fluid and 5 CFU/mL lavage fluid
Log10(CFU/mL lavage fluid) [9]: <0.70 Log10(CFU/mL lavage fluid) and 1.48 Log10(CFU/mL lavage fluid) and 0.70 Log10(CFU/mL lavage fluid)
CFU/mL lavage fluid [10]: <5 CFU/mL lavage fluid
Log10(CFU/mL lavage fluid) [10]: <0.70 Log10(CFU/mL lavage fluid)
CFU/mL lavage fluid [11]: 390000 CFU/mL and 85000 CFU/mL and 46000 CFU/mL and 59000 CFU/mL and 77000 CFU/mL
Log10(CFU/mL lavage fluid) [11]: 5.59 Log10(CFU/mL lavage fluid) and 4.93 Log10(CFU/mL lavage fluid) and 4.66 Log10(CFU/mL lavage fluid) and 4.77 Log10(CFU/mL lavage fluid) and 4.89 Log10(CFU/mL lavage fluid)
CFU/mL lavage fluid [12]: 64000 CFU/mL and 520000 CFU/mL and 61000 CFU/mL and 80000 CFU/mL and 103000 CFU/mL
Log10(CFU/mL lavage fluid) [12]: 4.81 Log10(CFU/mL lavage fluid) and 5.72 Log10(CFU/mL lavage fluid) and 4.79 Log10(CFU/mL lavage fluid) and 4.9 Log10(CFU/mL lavage fluid) and 5.01 Log10(CFU/mL lavage fluid)
CFU/mL lavage fluid [13]: 47000 CFU/mL and 64000 CFU/mL and 4900 CFU/mL and 1450 CFU/mL and 20400 CFU/mL
Log10(CFU/mL lavage fluid) [13]: 4.67 Log10(CFU/mL lavage fluid) and 4.81 Log10(CFU/mL lavage fluid) and 3.69 Log10(CFU/mL lavage fluid) and 3.16 Log10(CFU/mL lavage fluid) and 4.31 Log10(CFU/mL lavage fluid)
